Key:
Experiment in all cases: KINOMEscan Max
Type in all cases: binding
ACVRL1 = biological target: T1, ACVRL1 (Homo sapiens, UniProt P37023)
T1 construct: DNA tag (qPCR label); purchased Ambit Kinomescan (contract screening)
Outline: (§1)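 Competition binding assay: test compound competes with an immobilized, active-site directed ligand for DNA-tagged kinase. Kinase captured on the ligand is quantified by qPCR of the DNA tag.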

AKT1 = biological target: T2, AKT1 (Homo sapiens, UniProt P31749)
T2 construct: purchased Ambit (KINOMEscan Max service)
Outline: as §1

AURKB = AURKB (Homo sapiens, UniProt Q96GD4)
Outline: as §1

BTK = biological target: T3, BTK (Homo sapiens, UniProt Q06187); details: 1 μM
T3 construct: purchased Ambit (KINOMEscan Max service)
Outline: as §1

CDC2L2 = biological target: T4, CDC2L2 (Homo sapiens, UniProt Q9UQ88)
T4 construct: purchased Ambit (KINOMEscan Max service)
Outline: as §1

CDK2 = biological target: T5, CDK2 (Homo sapiens, UniProt P24941); details: 1 μM
T5 construct: purchased Ambit (KINOMEscan Max service)
Outline: as §1

CDK3 = CDK3 (Homo sapiens, UniProt Q00526); details: 1 μM
Outline: as §1

CDK8 = biological target: T6, CDK8 (Homo sapiens, UniProt P49336); details: 1 μM
T6 construct: purchased Ambit (KINOMEscan Max service)
Outline: as §1

CDKL3 = biological target: T7, CDKL3 (Homo sapiens, UniProt Q8IVW4)
T7 construct: purchased Ambit Kinomescan (contract screening)
Outline: as §1

CSNK1G3 = CSNK1G3 (Homo sapiens, UniProt Q9Y6M4); details: 1 μM
Outline: as §1

DAPK1 = biological target: T8, DAPK1 (Homo sapiens, UniProt P53355)
T8 construct: DNA tag (qPCR read-out)
Outline: as §1

DDR1 = biological target: T9, DDR1 (Homo sapiens, UniProt Q08345)
T9 construct: purchased Ambit (KINOMEscan Max panel service)
Outline: as §1

DMPK2 = DMPK2 (Homo sapiens, UniProt Q6DT37)
Outline: as §1

EPHA1 = biological target: T10, EPHA1 (Homo sapiens, UniProt P21709)
T10 construct: purchased Ambit (KINOMEscan Max panel service)
Outline: as §1

EPHA7 = biological target: T11, EPHA7 (Homo sapiens, UniProt Q15375)
T11 construct: purchased Ambit (KINOMEscan Max panel service)
Outline: as §1

EPHB4 = biological target: T12, EPHB4 (Homo sapiens, UniProt P54760)
T12 construct: purchased Ambit (KINOMEscan Max panel service)
Outline: as §1

FLT3(N841I) = biological target: T13, FLT3(N841I) (Homo sapiens, UniProt P36888, N841I)
T13 construct: purchased Ambit (KINOMEscan Max service)
Outline: as §1

HIPK1 = biological target: T14, HIPK1 (Homo sapiens, UniProt Q86Z02)
T14 construct: DNA tag (qPCR read-out); purchased Ambit Kinomescan
Outline: as §1

ITK = biological target: T15, ITK (Homo sapiens, UniProt Q08881); details: 1 μM
T15 construct: purchased Ambit Kinomescan (contract panel)
Outline: as §1

MEK3 = MEK3 (Homo sapiens, UniProt P46734)
Outline: as §1

MET(Y1235D) = biological target: T16, MET(Y1235D) (Homo sapiens, UniProt P08581, Y1235D); details: 1 μM
T16 construct: purchased Ambit (KINOMEscan Max service)
Outline: as §1

MRCKB = MRCKB (Homo sapiens, UniProt Q9Y5S2)
Outline: as §1

NEK7 = biological target: T17, NEK7 (Homo sapiens, UniProt Q8TDX7)
T17 construct: DNA tag (qPCR read-out)
Outline: as §1

PAK4 = biological target: T18, PAK4 (Homo sapiens, UniProt O96013)
T18 construct: purchased Ambit (KINOMEscan Max service)
Outline: as §1

PIP5K2C = biological target: T19, PIP5K2C (Homo sapiens, UniProt Q8TBX8)
T19 construct: DNA tag (qPCR read-out)
Outline: as §1

PRKD2 = biological target: T20, PRKD2 (Homo sapiens, UniProt Q9BZL6)
T20 construct: DNA tag (qPCR read-out)
Outline: as §1

RET(V804M) = biological target: T21, RET(V804M) (Homo sapiens, UniProt P07949, V804M)
T21 construct: DNA tag (qPCR read-out)
Outline: as §1

RIPK5 = biological target: T22, RIPK5 (Homo sapiens, UniProt Q6XUX3)
T22 construct: DNA tag (qPCR read-out)
Outline: as §1

SNRK = biological target: T23, SNRK (Homo sapiens, UniProt Q9NRH2)
T23 construct: DNA tag (qPCR read-out)
Outline: as §1

STK33 = STK33 (Homo sapiens, UniProt Q9BYT3)
Outline: as §1

TAOK2 = biological target: T24, TAOK2 (Homo sapiens, UniProt Q9UL54)
T24 construct: DNA tag (qPCR read-out)
Outline: as §1

TEC = biological target: T25, TEC (Homo sapiens, UniProt P42680)
T25 construct: purchased Ambit Kinomescan (contract screening service)
Outline: as §1

ULK2 = biological target: T26, ULK2 (Homo sapiens, UniProt Q8IYT8)
T26 construct: purchased Ambit (KINOMEscan Max service)
Outline: as §1

VRK2 = VRK2 (Homo sapiens, UniProt Q86Y07)
Outline: as §1

WEE2 = biological target: T27, WEE2 (Homo sapiens, UniProt P0C1S8)
T27 construct: purchased Ambit Kinomescan (contract screening service)
Outline: as §1

T10 sequence (P21709 26-976): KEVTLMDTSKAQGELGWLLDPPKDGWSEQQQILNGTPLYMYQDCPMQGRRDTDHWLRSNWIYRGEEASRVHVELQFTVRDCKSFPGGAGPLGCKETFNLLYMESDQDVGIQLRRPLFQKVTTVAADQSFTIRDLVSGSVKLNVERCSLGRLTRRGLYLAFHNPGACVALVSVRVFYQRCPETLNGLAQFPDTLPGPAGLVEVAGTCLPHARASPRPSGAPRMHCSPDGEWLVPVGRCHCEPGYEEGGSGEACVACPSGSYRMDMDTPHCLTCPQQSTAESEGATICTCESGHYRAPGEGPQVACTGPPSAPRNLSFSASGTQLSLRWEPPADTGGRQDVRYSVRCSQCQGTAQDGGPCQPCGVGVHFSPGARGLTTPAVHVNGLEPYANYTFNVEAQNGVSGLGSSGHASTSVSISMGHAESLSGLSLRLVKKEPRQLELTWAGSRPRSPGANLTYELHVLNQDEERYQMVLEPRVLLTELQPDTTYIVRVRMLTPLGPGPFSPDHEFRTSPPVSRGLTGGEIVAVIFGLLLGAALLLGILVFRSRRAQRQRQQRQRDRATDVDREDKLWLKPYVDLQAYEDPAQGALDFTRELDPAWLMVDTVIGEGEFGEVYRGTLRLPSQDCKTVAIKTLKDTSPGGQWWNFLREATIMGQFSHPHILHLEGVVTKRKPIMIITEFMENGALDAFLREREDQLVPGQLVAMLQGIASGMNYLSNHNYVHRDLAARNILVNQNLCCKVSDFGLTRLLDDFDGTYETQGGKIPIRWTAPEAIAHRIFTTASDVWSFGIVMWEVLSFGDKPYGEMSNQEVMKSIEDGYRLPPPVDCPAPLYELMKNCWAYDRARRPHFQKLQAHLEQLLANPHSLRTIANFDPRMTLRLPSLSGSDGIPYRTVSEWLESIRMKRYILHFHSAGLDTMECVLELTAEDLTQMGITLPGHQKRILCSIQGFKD
T15 sequence (Q08881 whole entry): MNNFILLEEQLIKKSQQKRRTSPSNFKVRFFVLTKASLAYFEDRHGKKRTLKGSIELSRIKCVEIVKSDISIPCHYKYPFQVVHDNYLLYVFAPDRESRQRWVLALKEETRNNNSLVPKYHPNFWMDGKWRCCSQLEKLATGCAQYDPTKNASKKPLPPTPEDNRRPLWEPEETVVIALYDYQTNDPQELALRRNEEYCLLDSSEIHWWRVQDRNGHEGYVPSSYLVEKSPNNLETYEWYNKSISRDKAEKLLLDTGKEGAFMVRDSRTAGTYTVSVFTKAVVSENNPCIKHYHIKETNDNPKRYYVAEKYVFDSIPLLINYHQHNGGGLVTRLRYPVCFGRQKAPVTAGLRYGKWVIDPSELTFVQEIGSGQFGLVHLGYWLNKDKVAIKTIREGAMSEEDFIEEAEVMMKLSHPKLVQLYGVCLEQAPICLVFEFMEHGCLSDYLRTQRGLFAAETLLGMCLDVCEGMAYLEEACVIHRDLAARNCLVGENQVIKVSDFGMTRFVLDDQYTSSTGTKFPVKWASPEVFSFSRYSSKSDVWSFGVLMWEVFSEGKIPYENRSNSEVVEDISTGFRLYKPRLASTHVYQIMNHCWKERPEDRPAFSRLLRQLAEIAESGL
T21 sequence (P07949 29-1114 V804M): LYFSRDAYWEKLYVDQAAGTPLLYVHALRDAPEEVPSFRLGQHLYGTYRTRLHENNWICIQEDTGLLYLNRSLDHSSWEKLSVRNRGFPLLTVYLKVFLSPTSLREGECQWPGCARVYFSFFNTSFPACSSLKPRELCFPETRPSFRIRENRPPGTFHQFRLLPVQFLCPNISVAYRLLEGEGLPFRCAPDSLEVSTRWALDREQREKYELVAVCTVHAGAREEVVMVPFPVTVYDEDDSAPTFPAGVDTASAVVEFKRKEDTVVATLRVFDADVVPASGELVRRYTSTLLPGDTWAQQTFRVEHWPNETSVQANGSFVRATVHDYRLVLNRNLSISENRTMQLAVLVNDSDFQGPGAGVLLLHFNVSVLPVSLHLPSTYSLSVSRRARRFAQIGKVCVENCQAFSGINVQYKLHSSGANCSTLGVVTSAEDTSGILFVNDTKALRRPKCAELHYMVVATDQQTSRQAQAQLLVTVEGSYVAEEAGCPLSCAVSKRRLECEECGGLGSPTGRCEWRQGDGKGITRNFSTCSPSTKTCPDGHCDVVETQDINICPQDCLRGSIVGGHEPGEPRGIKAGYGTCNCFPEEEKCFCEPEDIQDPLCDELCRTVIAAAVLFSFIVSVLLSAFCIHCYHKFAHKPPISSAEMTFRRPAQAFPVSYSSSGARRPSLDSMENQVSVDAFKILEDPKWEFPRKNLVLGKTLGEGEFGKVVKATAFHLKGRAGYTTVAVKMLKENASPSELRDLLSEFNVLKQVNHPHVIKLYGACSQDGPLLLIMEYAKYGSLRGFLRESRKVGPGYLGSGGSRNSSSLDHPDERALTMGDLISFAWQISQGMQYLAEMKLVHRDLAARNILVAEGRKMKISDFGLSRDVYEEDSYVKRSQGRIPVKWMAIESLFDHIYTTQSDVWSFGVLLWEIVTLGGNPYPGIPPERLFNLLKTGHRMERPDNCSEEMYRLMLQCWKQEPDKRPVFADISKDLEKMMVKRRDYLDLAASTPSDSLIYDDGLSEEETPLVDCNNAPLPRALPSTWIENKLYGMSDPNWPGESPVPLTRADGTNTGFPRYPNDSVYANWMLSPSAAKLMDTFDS
T4 sequence (Q9UQ88 whole entry): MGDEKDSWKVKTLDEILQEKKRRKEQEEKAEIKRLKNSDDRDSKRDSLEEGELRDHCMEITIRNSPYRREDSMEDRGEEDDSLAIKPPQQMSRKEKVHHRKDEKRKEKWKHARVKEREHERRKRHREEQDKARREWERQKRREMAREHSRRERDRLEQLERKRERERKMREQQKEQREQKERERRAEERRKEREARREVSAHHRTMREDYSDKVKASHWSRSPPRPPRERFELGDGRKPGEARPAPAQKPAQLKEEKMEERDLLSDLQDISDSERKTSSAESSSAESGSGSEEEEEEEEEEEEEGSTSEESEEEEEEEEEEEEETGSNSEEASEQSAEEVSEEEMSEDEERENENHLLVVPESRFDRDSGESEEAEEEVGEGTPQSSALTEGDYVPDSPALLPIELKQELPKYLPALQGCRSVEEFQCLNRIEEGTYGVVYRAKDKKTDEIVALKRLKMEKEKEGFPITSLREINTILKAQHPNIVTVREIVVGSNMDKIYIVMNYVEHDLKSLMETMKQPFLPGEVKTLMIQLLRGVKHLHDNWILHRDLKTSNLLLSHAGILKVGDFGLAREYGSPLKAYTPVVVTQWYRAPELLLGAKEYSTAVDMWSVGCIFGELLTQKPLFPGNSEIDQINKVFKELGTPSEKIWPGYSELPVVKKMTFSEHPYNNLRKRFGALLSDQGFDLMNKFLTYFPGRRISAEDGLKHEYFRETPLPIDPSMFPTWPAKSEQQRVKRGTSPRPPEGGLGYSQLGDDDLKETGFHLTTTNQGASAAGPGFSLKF
T17 sequence (Q8TDX7 whole entry): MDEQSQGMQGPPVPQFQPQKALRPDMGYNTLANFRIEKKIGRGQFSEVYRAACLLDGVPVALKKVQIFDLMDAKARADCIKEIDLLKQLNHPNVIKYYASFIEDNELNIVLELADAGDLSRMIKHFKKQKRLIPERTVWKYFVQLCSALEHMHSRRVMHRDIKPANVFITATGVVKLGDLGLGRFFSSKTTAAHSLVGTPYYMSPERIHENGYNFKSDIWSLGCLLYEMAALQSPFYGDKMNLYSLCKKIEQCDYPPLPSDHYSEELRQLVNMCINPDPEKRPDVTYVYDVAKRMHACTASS
Sequence of CSNK1G3 (Q9Y6M4 whole entry): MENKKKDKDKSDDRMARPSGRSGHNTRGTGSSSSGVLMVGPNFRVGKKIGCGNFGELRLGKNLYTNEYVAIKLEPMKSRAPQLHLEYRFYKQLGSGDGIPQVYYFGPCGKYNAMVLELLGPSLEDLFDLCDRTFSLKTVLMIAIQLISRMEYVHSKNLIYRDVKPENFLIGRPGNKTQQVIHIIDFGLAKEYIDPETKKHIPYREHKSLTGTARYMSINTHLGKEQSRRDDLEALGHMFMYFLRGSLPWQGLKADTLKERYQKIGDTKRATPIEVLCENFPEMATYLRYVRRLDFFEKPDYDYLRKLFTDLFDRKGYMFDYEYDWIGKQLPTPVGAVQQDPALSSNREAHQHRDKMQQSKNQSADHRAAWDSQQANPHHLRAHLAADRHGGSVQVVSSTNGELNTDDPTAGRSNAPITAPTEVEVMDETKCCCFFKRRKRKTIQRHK
T25 sequence (P42680 whole entry): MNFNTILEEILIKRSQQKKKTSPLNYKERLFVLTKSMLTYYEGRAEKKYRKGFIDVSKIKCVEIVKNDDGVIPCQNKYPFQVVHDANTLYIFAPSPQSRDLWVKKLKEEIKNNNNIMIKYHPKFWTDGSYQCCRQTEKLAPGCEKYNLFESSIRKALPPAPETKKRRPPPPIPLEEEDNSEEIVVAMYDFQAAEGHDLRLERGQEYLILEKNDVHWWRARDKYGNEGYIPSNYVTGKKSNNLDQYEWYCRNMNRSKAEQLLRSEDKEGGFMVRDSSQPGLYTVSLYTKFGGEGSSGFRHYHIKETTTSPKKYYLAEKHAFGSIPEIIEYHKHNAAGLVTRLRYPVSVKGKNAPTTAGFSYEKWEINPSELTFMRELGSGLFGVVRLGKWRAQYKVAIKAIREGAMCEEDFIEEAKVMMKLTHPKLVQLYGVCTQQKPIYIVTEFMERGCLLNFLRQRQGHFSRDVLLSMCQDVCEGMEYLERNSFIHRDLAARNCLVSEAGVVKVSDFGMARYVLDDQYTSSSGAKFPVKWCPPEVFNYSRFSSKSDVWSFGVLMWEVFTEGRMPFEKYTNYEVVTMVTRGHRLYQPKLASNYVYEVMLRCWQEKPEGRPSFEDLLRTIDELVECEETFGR

NCCCNc1nc2c(Br)c(Br)c(Br)c(Br)c2[nH]1 [Compound 11, N-(3-aminopropyl)-4,5,6,7-tetrabromo-1H-benzo[d]imidazol-2-amine]
remaining binding at 1 µM (ACVRL1): 100% | remaining binding at 1 µM (AKT1): 70% | remaining binding at 1 µM (AURKB): 94% | % binding (BTK): 85% | remaining binding at 1 µM (CDC2L2): 82% | % binding (CDK2): 71% | % binding (CDK3): 74% | % binding (CDK8): 68% | remaining binding at 1 µM (CDKL3): 98% | % binding (CSNK1G3): 92% | remaining binding at 1 µM (DAPK1): 90% | remaining binding at 1 µM (DDR1): 100% | remaining binding at 1 µM (DMPK2): 96% | remaining binding at 1 µM (EPHA1): 100% | remaining binding at 1 µM (EPHA7): 100% | remaining binding at 1 µM (EPHB4): 100% | remaining binding at 1 µM (FLT3(N841I)): 81% | remaining binding at 1 µM (HIPK1): 2.8% | % binding (ITK): 100% | remaining binding at 1 µM (MEK3): 78% | % binding (MET(Y1235D)): 70% | remaining binding at 1 µM (MRCKB): 100% | remaining binding at 1 µM (NEK7): 86% | remaining binding at 1 µM (PAK4): 85% | remaining binding at 1 µM (PIP5K2C): 56% | remaining binding at 1 µM (PRKD2): 42% | remaining binding at 1 µM (RET(V804M)): 100% | remaining binding at 1 µM (RIPK5): 100% | remaining binding at 1 µM (SNRK): 100% | remaining binding at 1 µM (STK33): 77% | remaining binding at 1 µM (TAOK2): 100% | remaining binding at 1 µM (TEC): 100% | remaining binding at 1 µM (ULK2): 60% | remaining binding at 1 µM (VRK2): 79% | remaining binding at 1 µM (WEE2): 100%

Reference: US20110230481A2, “DERIVATIVES OF TETRABROMOBENZIMIDAZOLE, A PROCESS FOR THE PREPARATION THEREOF, A PHARMACEUTICAL COMPOSITION COMPRISING THE SAME, A METHOD OF USING THE SAME, A METHOD FOR MODULATING OR REGULATING SERINE/THREONINE KINASES, AND SERINE/THREONINE KINASES MODULATING AGENT” (SELVITA S.A., priority 2009, published 2011)
